The text below walks through data of patent publication US20240336638A1, “IMIDAZOLE COMPOUND, AND INTERMEDIATE AND APPLICATION THEREOF” (priority 2021, published 2024).

Data set [1] concerns AA-induced platelet aggregation. The data set is described as follows: Inhibitory effect on AA-induced platelet aggregation in rats in vitro (washed platelets). In kind it is cell-based, rat. The settings on record: 1*10^−4 M. The procedure:
Several experimental groups were established, including a blank control group, an AA (arachidonic acid) model control group, and various test compounds. Each test compound had three concentration groups: 10^−3 M, 10^−4 M, and 10^−5 M. The data from the blank and model control group were shared among the different drug concentration groups as a control.
Male SD rats were anesthetized with 3% chloral hydrate (300 mg/kg) through intraperitoneal injection. After being fixed in a supine position, the skin of the neck was cut about 3 cm, bluntly separated with a hemostat, and the trachea was exposed after the common carotid artery was separated. The distal end of the common carotid artery was ligated with a fine thread, and the proximal end was clamped with an arterial clamp for vascular intubation. After the intubation was fixed, the artery clamp was opened, and the blood was placed into a blood collection tube containing 3.8% trisodium citrate so that the blood was mixed well with the 3.8% trisodium citrate in a volume ratio of 9:1.
The prepared anticoagulant blood was mixed well and centrifuged for 10 minutes at 500 rpm, then the upper layer of plasma was aspirated to obtain platelet-rich plasma (PRP), and the PRP was centrifuged again for 5 minutes at 3,000 rpm. The supernatant was discarded, and the platelet precipitate was obtained, which was washed once with Ca^2+-free HEPES-Tyrode's buffer, then centrifuged at 3,000 rpm for 5 minutes. The supernatant was discarded, and the platelets were resuspended with Ca^2+-free HEPES-Tyrode's buffer to obtain the washed platelets.
First, 300 μL of Ca^2+-containing HEPES-Tyrode's solution was taken into the test cup, put into the test wells, and calibrated by pressing the “PPP” key. Subsequently, 240 μL of the washed platelets were added to the test cup, then added with 30 μL of different concentrations of drug solution, incubated for 10 minutes at 37° C. in a preheated bath, and then put into the test wells. 3 μL of 100× CaCl2 solution (final concentration of 0.2 g/L) and 30 μL of inducer (final concentration of AA of 800 μM) were added to the test wells, and then the “Start” key was pressed immediately. The maximum aggregation rate was recorded every 60 s. The measurement was repeated three times for each concentration for 10 minutes, and the aggregation curve was plotted.
The platelet aggregation inhibition rate was calculated with the following formula:
Inhibition rate (%)=(maximum aggregation rate in the model control group−maximum aggregation rate in the administration group)/maximum aggregation rate in the model control group×100%
All data were expressed as mean±standard deviation (mean±SD). SPSS 22.0 software was used for statistical analysis of the data. Intergroup data were analyzed using one-way ANOVA, with P<0.05 considered as statistically significant and P<0.01 considered as highly significant.

Data set [2] is described as follows: Blood-brain barrier (BBB) study in SD rats after single IV and PO administration, brain. Type of data set: in vivo. To be noted: for Cmax / Tmax / half-life / MRT last / MRT inf: Sprague-Dawley (SD); for MRT last: read-out: MRT(0−t); for MRT inf: read-out: MRT(0−∞); for T1/2 and AUC(0-∞) in the brain tissue: compared to Ozagrel. As to the method:
Effect Example 3: Pharmacokinetic and blood-brain barrier (BBB) studies of compounds after single intravenous (IV) and oral (PO) administration in SD rats
(§1) The experimental method of administration by gavage injection in rats: SD rats weighing 180 to 220 g were fasted for 12 hours prior to the experiment, with free access to water. After administration, food and water were withheld for 4 hours. After this 4-hour period, the rats were allowed free access to water, and food was provided after 8 hours. The drugs were administered at a set dose. N=3, blood samples were taken before administration, and 5 minutes, 0.25 hours, 0.5 hours, 0.75 hours, 1 hour, 2 hours, 4 hours, 8 hours, and 24 hours after administration, respectively, and placed into sodium heparin anticoagulant tubes. The tubes were centrifuged for 1 hour at 4° C. and at 8000 rpm for 5 minutes, and the plasma was then separated and stored in centrifuge tubes at −70° C. for analysis.
as §1, with “of intravenous” for “of”, “to” for “by gavage injection in”
The plasma concentration-time data were processed using the Phoenix® WinNonlin® 8.0 program to calculate pharmacokinetic parameters.
Among them, Cmax and Tmax are measured values, the elimination rate constant k of the tail section of the C-t curve is obtained from the linear regression of LnC-t, and the value of AUC0-4 is calculated by the trapezoidal area method, and the area under the curve from 0 to ∞ time is AUC=AUC0-4+Ct/k.

SMILES strings stand for the structures. Where two headings read alike, the source gives them in different places.

As to `O=C(O)[C@@H]1C[C@H]1c1ccc(Cn2ccnc2)c(F)c1` [Compound 15, (1R,2R)-2-(4-((1H-Imidazol-1-yl)methyl)-3-fluorophenyl)cyclopropane-1-carboxylic acid], in data set [1], the “significant inhibition of AA-induced platelet aggregation” value (shortened to “significant inhibition”) is “can significantly inhibit”. For the same compound, in data set [2] (rat brain, IV 1 mg/kg), the concentration peaked (Cmax) at 41.2 ng/g, the Tmax was 0.08 h, the half-life is 2.2 h and the MRT last amounted to 0.82 h. Also, in data set [2] (rat brain, IV 1 mg/kg), the MRT inf came out at 3.05 h, the “AUC(0−t)” value was 33.91 ng·h/g and the “AUC(0−∞)” value turned out to be 69.74 ng·h/g. In data set [2] (rat brain, PO 6 mg/kg), the Cmax worked out at 199 ng/g, the Tmax was 1 h, the half-life is 1.7 h and the MRT last turned out to be 2.56 h. Moreover, in data set [2] (rat brain, PO 6 mg/kg), the MRT inf came to 2.91 h, the “AUC(0−t)” value is 815.87 ng·h/g and the “AUC(0−∞)” value came out at 853.63 ng·h/g. In addition, in data set [2] (intravenously at 1 mg/kg), the “T1/2 and AUC(0-∞) in the brain tissue” value was “significantly increased”. Further, the “T1/2 and AUC(0-∞) in the brain tissue” value in data set [2] (orally at 6 mg/kg) is “significantly increased”.

For `O=C(O)/C=C/c1ccc(Cn2ccnc2)cc1` [Ozagrel, reference compound], in data set [2] (rat brain, IV 1 mg/kg), the Cmax came to 27.6 ng/g, the Tmax was found to be 0.08 h, the half-life is 0.11 h and the MRT last amounted to 0.15 h. Further, in data set [2] (rat brain, IV 1 mg/kg), the MRT inf came out at 0.17 h, the “AUC(0−t)” value was 4.96 ng·h/g and the “AUC(0−∞)” value was 5.25 ng·h/g. Further, in data set [2] (rat brain, PO 6 mg/kg), the Cmax was determined as 42.6 ng/g, the Tmax came to 0.25 h, the half-life was 0.4 h and the MRT last was 0.59 h. Besides, in data set [2] (rat brain, PO 6 mg/kg), the MRT inf stood at 0.68 h, the “AUC(0−t)” value came out at 35.86 ng·h/g and the “AUC(0−∞)” value is 37.46 ng·h/g.

With `O=C(O)[C@@H]1C[C@H]1c1ccc(Cn2cnc(F)c2)c(Cl)c1` [Compound 18, (1R,2R)-2-(3-Chloro-4-((4-fluoro-1H-imidazol-1-yl)methyl)phenyl)cyclopropane-1-carboxylic acid], the “significant inhibition” value in data set [1] is “can significantly inhibit”. Further, in data set [2] (rat brain, IV 1 mg/kg), the Cmax is 75.5 ng/g, the Tmax stood at 0.08 h, the half-life was 8.7 h and the MRT last is 7.19 h. In addition, in data set [2] (rat brain, IV 1 mg/kg), the MRT inf was determined as 11.5 h, the “AUC(0−t)” value was found to be 633.23 ng·h/g and the “AUC(0−∞)” value came to 741.29 ng·h/g. Besides, in data set [2] (rat brain, PO 6 mg/kg), the highest level (Cmax) was 460 ng/g, the Tmax came to 1 h, the half-life was 8.36 h and the MRT last was 7.84 h. For the same compound, in data set [2] (rat brain, PO 6 mg/kg), the MRT inf was 11.7 h, the “AUC(0−t)” value stood at 6454.78 ng·h/g and the “AUC(0−∞)” value turned out to be 7477.48 ng·h/g. Besides, in data set [2] (intravenously at 1 mg/kg), the “T1/2 and AUC(0-∞) in the brain tissue” value is “significantly increased”. In addition, the “T1/2 and AUC(0-∞) in the brain tissue” value in data set [2] (orally at 6 mg/kg) is “significantly increased”.

Consider `O=C(O)[C@@H]1C[C@H]1c1ccc(Cn2cnc(F)c2)cc1F` [Compound 17, (1R,2R)-2-(2-Fluoro-4-((4-fluoro-1H-imidazol-1-yl)methyl)phenyl)cyclopropane-1-carboxylic acid], for which the “significant inhibition” value in data set [1] is on record as “can significantly inhibit”. Besides, in data set [2] (rat brain, IV 1 mg/kg), the concentration peaked (Cmax) at 84.1 ng/g, the Tmax amounted to 0.08 h, the half-life is 3.72 h and the MRT last was 2.53 h. Further, in data set [2] (rat brain, IV 1 mg/kg), the MRT inf is 4.7 h, the “AUC(0−t)” value worked out at 169.74 ng·h/g and the “AUC(0−∞)” value is 212.39 ng·h/g. In data set [2] (rat brain, PO 6 mg/kg), the Cmax worked out at 323 ng/g, the Tmax stood at 2 h, the half-life is 2.82 h and the MRT last was determined as 4.53 h. In data set [2] (rat brain, PO 6 mg/kg), the MRT inf amounted to 4.6 h, the “AUC(0−t)” value stood at 2329.55 ng·h/g and the “AUC(0−∞)” value turned out to be 2336.46 ng·h/g. Moreover, in data set [2] (intravenously at 1 mg/kg), the “T1/2 and AUC(0-∞) in the brain tissue” value is “significantly increased”. The “T1/2 and AUC(0-∞) in the brain tissue” value in data set [2] (orally at 6 mg/kg) is “significantly increased”.

Take `O=C(O)[C@@H]1C[C@H]1c1ccc(Cn2ccnc2)cc1` [Compound 19, (1R,2R)-2-(4-((1H-Imidazol-1-yl)methyl)phenyl)cyclopropane-1-carboxylic acid]: in data set [1], the “significant inhibition” value is recorded as “can significantly inhibit”. In data set [2] (rat brain, IV 1 mg/kg), the highest level (Cmax) was 36 ng/g, the Tmax was 0.08 h, the half-life is 0.38 h and the MRT last was 0.35 h. Moreover, in data set [2] (rat brain, IV 1 mg/kg), the MRT inf amounted to 0.56 h, the “AUC(0−t)” value worked out at 16.44 ng·h/g and the “AUC(0−∞)” value was found to be 19.83 ng·h/g. For the same compound, in data set [2] (rat brain, PO 6 mg/kg), the highest level (Cmax) was 168 ng/g, the Tmax amounted to 0.25 h, the half-life is 0.77 h and the MRT last turned out to be 1.22 h. For the same compound, in data set [2] (rat brain, PO 6 mg/kg), the MRT inf stood at 1.32 h, the “AUC(0−t)” value amounted to 289.35 ng·h/g and the “AUC(0−∞)” value worked out at 296.91 ng·h/g.

Consider `O=C(O)[C@@H]1C[C@H]1c1ccc(Cn2cnc(Cl)c2)c(Cl)c1` [Compound 11, (1R,2R)-2-(3-Chloro-4-((4-chloro-1H-imidazol-1-yl)methyl)phenyl)cyclopropane-1-carboxylic acid], for which the “significant inhibition” value in data set [1] was “can significantly inhibit”. Moreover, in data set [2] (rat brain, IV 1 mg/kg), the highest level (Cmax) was 57.5 ng/g, the Tmax amounted to 1 h, the half-life is 19.5 h and the MRT last worked out at 9.49 h. For the same compound, in data set [2] (rat brain, IV 1 mg/kg), the MRT inf was 27.4 h, the “AUC(0−t)” value amounted to 855.25 ng·h/g and the “AUC(0−∞)” value came to 1475.23 ng·h/g. For the same compound, in data set [2] (rat brain, PO 6 mg/kg), the highest level (Cmax) was 385 ng/g, the time of peak concentration (Tmax) amounted to 4 h, the half-life is 19.7 h and the MRT last was 9.94 h. Also, in data set [2] (rat brain, PO 6 mg/kg), the MRT inf was determined as 28.5 h, the “AUC(0−t)” value worked out at 7014.55 ng·h/g and the “AUC(0−∞) (h*ng/g)” value is reported as 12,439.74 h*ng/g. The “T1/2 and AUC(0-∞) in the brain tissue” value in data set [2] (intravenously at 1 mg/kg) was “significantly increased”. Also, the “T1/2 and AUC(0-∞) in the brain tissue” value in data set [2] (orally at 6 mg/kg) was “significantly increased”.

As a reminder, the Cmax is the peak of the concentration-time curve. Usually Tmax stands for the time at which the peak concentration occurs. As usually defined, the half-life is how long it takes for the measured level to halve. The low end stands for fast loss, the high end for slow loss.
